Laboratory results reported in patent publication US9499485B2, “Compounds that are S1P modulating agents and/or ATX modulating agents” (BIOGEN MA INC., priority 2012, dated 2016).
Where two headings read alike, the source gives them in different places.

Molecular target: T1, Human ATX protein (Homo sapiens, UniProt Q13822)
T1 construct: made in house
Test: ATX biochemical FRET assay with FS-3 substrate
Settings: FS-3 2 μM, ATX 1.0 μg/mL
From the text: ATX (Autotaxin) is a 125 KDa glycoprotein with lysophospholipase D (LPLD) activity that generates the bioactive lipid lysophosphatidic acid (LPA) from lysophosphatidylcholine (LPC). The ATX biochemical assay utilizes a FRET (fluorescence resonance energy transfer) technology platform. The fluorescence signal of FRET substrate FS-3 is quenched due to intra-molecular FRET of a fluorophore to a non-fluorescing quencher (Ferguson, C. G., et al., Org. Lett. 2006 May 11; 8(10): 2023-2026, which is incorporated by reference in its entirety). ATX catalyzes the hydrolysis of the substrate which separates the dabsyl quencher from the fluorescein reporter, which becomes fluorescent. The reaction is monitored by a SpectraMax M5 (Molecular Devices, Sunnyvale, Calif.) with at excitation wavelength 485 nm and emission wavelength 535 nm.
2×ATX assay buffer: 100 mM Tris, 280 mM NaCl, 10 mM KCl, 2 mM CaCl2, 2 mM MgCl2, pH 7.4.
Human ATX protein: expressed and purified in house. Stored at −80° C.
Substrate FS-3 (Echelon, L-2000): 100 μg in 77.74 μL H2O (1 mM stock), stored at −20° C.
Compound dilution—All compounds were provided at 10 mM in 100% DMSO. In the first well, 2 μL of 10 mM compound was added to 78 μL of DMSO (1:40 dilution). In subsequent wells 3-fold dilution (total 10 dilutions) were performed.
1×ATX assay buffer was made up with a final concentration of 1 mg/mL fatty acid free-BSA using 2×ATX assay buffer, 10 mg/ml fatty acid free-BSA and ddH2O.
ATX protein was diluted with 1×ATX assay buffer to a concentration of 1.32 μg/mL (1.32×). 38 μL was added per well to the assay plate. The final concentration of ATX in the reaction as 1.0 μg/mL.
2 μL per well of compounds was transferred to provide the desired concentration. The plate was centrifuged, then incubated at room temperature for 30 minutes on the shaker.
FS-3 was diluted with 1×ATX assay buffer to a concentration of FS-3 of 10 μM (5×). Then, 10 μL was added per well to the assay plate. The final concentration of FS-3 in the reaction was 2 μM. The plate was centrifuged. The plate was kept shaking at room temperature for 2 hours. Because FS-3 substrate is light sensitive, plates were kept covered and protected from light.
Fluorescence was measured using SpectraMax M5 (excitation at 485 nm/emission at 538 nm, top read).

[1] = binned table, read-out: IC50 (μm)

IC50 [1] [nM]	IC50 (read-out: ATX IC50) [nM]	SMILES
500 to 5000	–	C[C@H]1CC[C@@H](Oc2ccc3c(CN4CCC(C(=O)O)CC4)cccc3c2C(F)(F)F)CC1 [Example 1, 1-((6-((cis-4-methylcyclohexyl)oxy)-5-(trifluoromethyl)naphthalen-1-yl)methyl)piperidine-4-carboxylic acid]
< 500	≤ 250	C[C@H]1CC[C@@H](Oc2ccc3c(CN4CCC[C@H](CC(=O)O)C4)cccc3c2C(F)(F)F)CC1 [Example 4, 2-((R)-1-((6-((cis-4-methylcyclohexyl)oxy)-5-(trifluoromethyl)naphthalen-1-yl)methyl)piperidin-3-yl)acetic acid]
> 5000	–	C[C@H]1CC[C@@H](Oc2ccc3c(CNC4(C(=O)O)CCCCC4)cccc3c2C(F)(F)F)CC1 [Example 5, 1-(((6-((cis-4-methylcyclohexyl)oxy)-5-(trifluoromethyl)naphthalen-1-yl)methyl)amino)cyclohexanecarboxylic acid]
500 to 5000	–	C[C@H]1CC[C@@H](Oc2ccc3c(CNCC(=O)O)cccc3c2C(F)(F)F)CC1 [Example 6, 2-(((6-((cis-4-methylcyclohexyl)oxy)-5-(trifluoromethyl)naphthalen-1-yl)methyl)amino)acetic acid]
< 500	–	C[C@H]1CC[C@@H](Oc2ccc3c(CNCCC(=O)O)cccc3c2C(F)(F)F)CC1 [Example 7, 3-(((6-((cis-4-methylcyclohexyl)oxy)-5-(trifluoromethyl)naphthalen-1-yl)methyl)amino)propanoic acid]
< 500	–	C[C@H]1CC[C@@H](Oc2ccc3c(CNCCCC(=O)O)cccc3c2C(F)(F)F)CC1 [Example 8, 4-(((6-((cis-4-methylcyclohexyl)oxy)-5-(trifluoromethyl)naphthalen-1-yl)methyl)amino)butanoic acid]
500 to 5000	–	C[C@H]1CC[C@@H](Oc2ccc3c(CNCCCCC(=O)O)cccc3c2C(F)(F)F)CC1 [Example 9, 5-(((6-((cis-4-methylcyclohexyl)oxy)-5-(trifluoromethyl)naphthalen-1-yl)methyl)amino)pentanoic acid]
< 500	≤ 250	C[C@H]1CC[C@@H](Oc2ccc3c(CNCCCCCC(=O)O)cccc3c2C(F)(F)F)CC1 [Example 10, 6-(((6-((cis-4-methylcyclohexyl)oxy)-5-(trifluoromethyl)naphthalen-1-yl)methyl)amino)hexanoic acid]
500 to 5000	–	O=C(O)C1CCN(Cc2cccc3c(C(F)(F)F)c(O[C@H]4CC[C@@H](C(F)(F)F)CC4)ccc23)CC1 [Example 11, 1-((5-(trifluoromethyl)-6-((cis-4-(trifluoromethyl)cyclohexyl)oxy)naphthalen-1-yl)methyl)piperidine-4-carboxylic acid]
< 500	≤ 250	O=C(O)C[C@H]1CCCN(Cc2cccc3c(C(F)(F)F)c(O[C@H]4CC[C@@H](C(F)(F)F)CC4)ccc23)C1 [Example 14, 2-((R)-1-((5-(trifluoromethyl)-6-((cis-4-(trifluoromethyl)cyclohexyl)oxy)naphthalen-1-yl)methyl)piperidin-3-yl)acetic acid]
> 5000	–	O=C(O)C1(NCc2cccc3c(C(F)(F)F)c(O[C@H]4CC[C@@H](C(F)(F)F)CC4)ccc23)CCCCC1 [Example 15, 1-(((5-(trifluoromethyl)-6-((cis-4-(trifluoromethyl)cyclohexyl)oxy)naphthalen-1-yl)methyl)amino)cyclohexanecarboxylic acid]
500 to 5000	–	O=C(O)CNCc1cccc2c(C(F)(F)F)c(O[C@H]3CC[C@@H](C(F)(F)F)CC3)ccc12 [Example 16, 2-(((5-(trifluoromethyl)-6-((cis-4-(trifluoromethyl)cyclohexyl)oxy)naphthalen-1-yl)methyl)amino)acetic acid]
500 to 5000	–	O=C(O)CCNCc1cccc2c(C(F)(F)F)c(O[C@H]3CC[C@@H](C(F)(F)F)CC3)ccc12 [Example 17, 3-(((5-(trifluoromethyl)-6-((cis-4-(trifluoromethyl)cyclohexyl)oxy)naphthalen-1-yl)methyl)amino)propanoic acid]
< 500	–	O=C(O)CCCNCc1cccc2c(C(F)(F)F)c(O[C@H]3CC[C@@H](C(F)(F)F)CC3)ccc12 [Example 18, 4-(((5-(trifluoromethyl)-6-((cis-4-(trifluoromethyl)cyclohexyl)oxy)naphthalen-1-yl)methyl)amino)butanoic acid]
500 to 5000	–	O=C(O)CCCCNCc1cccc2c(C(F)(F)F)c(O[C@H]3CC[C@@H](C(F)(F)F)CC3)ccc12 [Example 19, 5-(((5-(trifluoromethyl)-6-((cis-4-(trifluoromethyl)cyclohexyl)oxy)naphthalen-1-yl)methyl)amino)pentanoic acid]
< 500	≤ 250	O=C(O)CCCCCNCc1cccc2c(C(F)(F)F)c(O[C@H]3CC[C@@H](C(F)(F)F)CC3)ccc12 [Example 20, 6-(((5-(trifluoromethyl)-6-((cis-4-(trifluoromethyl)cyclohexyl)oxy)naphthalen-1-yl)methyl)amino)hexanoic acid]
500 to 5000	–	C[C@H]1CC[C@@H](Oc2ccc3cccc(CN4CCC(C(=O)O)CC4)c3c2C(F)(F)F)CC1 [Example 21, 1-((7-((cis-4-methylcyclohexyl)oxy)-8-(trifluoromethyl)naphthalen-1-yl)methyl)piperidine-4-carboxylic acid]
500 to 5000	–	C[C@H]1CC[C@@H](Oc2ccc3cccc(CN4CCC[C@H](CC(=O)O)C4)c3c2C(F)(F)F)CC1 [Example 24, 2-((R)-1-((7-((cis-4-methylcyclohexyl)oxy)-8-(trifluoromethyl)naphthalen-1-yl)methyl)piperidin-3-yl)acetic acid]

SMILES	IC50 [1] [nM]	IC50 (read-out: ATX IC50) [nM]
C[C@H]1CC[C@@H](Oc2ccc3c(CN4C5CCC4CC(C(=O)O)C5)cccc3c2C(F)(F)F)CC1 (stereo partly drawn) [Example 2, 8-((6-((cis-4-methylcyclohexyl)oxy)-5-(trifluoromethyl)naphthalen-1-yl)methyl)-8-azabicyclo[3.2.1]octane-3-carboxylic acid]	500 to 5000	–
C[C@H]1CC[C@@H](Oc2ccc3c(CN4C5CCCC4CC(C(=O)O)C5)cccc3c2C(F)(F)F)CC1 (stereo partly drawn) [Example 3, 9-((6-((cis-4-methylcyclohexyl)oxy)-5-(trifluoromethyl)naphthalen-1-yl)methyl)-9-azabicyclo[3.3.1]nonane-3-carboxylic acid]	500 to 5000	–
O=C(O)C1CC2CCCC(C1)N2Cc1cccc2c(C(F)(F)F)c(O[C@H]3CC[C@@H](C(F)(F)F)CC3)ccc12 (stereo partly drawn) [Example 13, 9-((5-(trifluoromethyl)-6-((cis-4-(trifluoromethyl)cyclohexyl)oxy)naphthalen-1-yl)methyl)-9-azabicyclo[3.3.1]nonane-3-carboxylic acid]	500 to 5000	–
C[C@H]1CC[C@@H](Oc2ccc3cccc(CN4C5CCC4CC(C(=O)O)C5)c3c2C(F)(F)F)CC1 (stereo partly drawn) [Example 22, 8-((7-((cis-4-methylcyclohexyl)oxy)-8-(trifluoromethyl)naphthalen-1-yl)methyl)-8-azabicyclo[3.2.1]octane-3-carboxylic acid]	< 500	≤ 250
C[C@H]1CC[C@@H](Oc2ccc3cccc(CN4C5CCCC4CC(C(=O)O)C5)c3c2C(F)(F)F)CC1 (stereo partly drawn) [Example 23, 9-((7-((cis-4-methylcyclohexyl)oxy)-8-(trifluoromethyl)naphthalen-1-yl)methyl)-9-azabicyclo[3.3.1]nonane-3-carboxylic acid]	500 to 5000	–
